From patent publication US3985875A, “ω-(N-acylamino)alkylphosphoryl ethanolamines, pharmaceutical compositions containing them, and their uses” (Dainippon Pharmaceutical Co., Ltd., priority 1974, dated 1976)
Like-named read-outs stand apart in the source and are kept apart here.

Legend:
[1] = biological target: T1, Renin (Homo sapiens, UniProt P00797); assay: Renin-inhibitory activity, Method I (inhibition of Angiotensin I formation, RIA); assay type: biochemical; settings: for inhibition at 1250 µg/mL: 1.25 mg/ml; for inhibition at 313 µg/mL: 0.313 mg/ml; for inhibition at 625 µg/mL: 0.625 mg/ml; for inhibition at 2500 µg/mL: 2.5 mg/ml
T1 sequence (P00797 67-406): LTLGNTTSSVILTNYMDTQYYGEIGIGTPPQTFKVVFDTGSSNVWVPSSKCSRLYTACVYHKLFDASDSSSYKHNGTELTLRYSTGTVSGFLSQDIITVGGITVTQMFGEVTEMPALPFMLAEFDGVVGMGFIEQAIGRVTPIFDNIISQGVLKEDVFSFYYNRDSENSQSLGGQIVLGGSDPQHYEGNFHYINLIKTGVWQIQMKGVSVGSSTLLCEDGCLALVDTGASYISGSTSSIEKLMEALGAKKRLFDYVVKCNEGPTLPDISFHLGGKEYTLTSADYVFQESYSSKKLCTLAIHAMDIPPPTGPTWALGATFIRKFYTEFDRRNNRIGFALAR
Experimental: Renin (see E. Haas et al. Circulation Research, Vol. 19, p. 739, 1966 and Vol. 31, p. 65, 1972) was incubated in Angiotensinogen at 37° C. for 2 to 6 hours. Similarly, renin was incubated under the same conditions in the presence of 0.313 to 2.5 mg/ml. of each of the test compounds listed above. The amount of Angiotensin I was measured by radioimmunoassay (RIA) (E. Haber et al., J. Clin. Endocrinol., Vol. 29, p. 1349, 1969), and made the renin activity.
(§1) The results are shown in Table 1 (the rate of inhibiting the formation of Angiotensin I, as determined by Method I, when the plasma was incubated at 37° C. for 2, 4 and 6 hours respectively), and Table 2 (the rate of inhibiting the formation of Angiotensin I when the plasma was incubated at 37° C. for 4 hours, with the compound concentration of 1.25 mg/ml.)

[2] = biological target: T2, High renin plasma (Canis lupus familiaris, UniProt Q6DYE7); assay: Renin-inhibitory activity, Method II (high renin plasma of dog, inhibition of Angiotensin I formation); assay type: biochemical; settings: Table 2; 37°C, 4 hours, 1.25 mg/ml; read-out: Rate of inhibiting the formation of Angiotensin I determined by Method II
T2 construct: High renin plasma prepared by constriction of the renal artery of a dog anesthetized with Nembutal; from tissue; host or cells: plasma of a dog with constricted renal artery
T2 sequence (Q6DYE7 66-403): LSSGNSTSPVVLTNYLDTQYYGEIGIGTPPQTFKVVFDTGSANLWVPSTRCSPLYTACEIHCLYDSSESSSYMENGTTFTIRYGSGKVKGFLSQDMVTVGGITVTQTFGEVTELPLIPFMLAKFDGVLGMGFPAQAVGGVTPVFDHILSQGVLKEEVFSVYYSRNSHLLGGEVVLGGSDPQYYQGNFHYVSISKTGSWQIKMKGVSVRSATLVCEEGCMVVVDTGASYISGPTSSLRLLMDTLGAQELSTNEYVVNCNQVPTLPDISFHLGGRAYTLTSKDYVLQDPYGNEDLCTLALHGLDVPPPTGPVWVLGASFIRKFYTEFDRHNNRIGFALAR
Experimental: High renin plasma prepared by constriction of the renal artery of a dog anesthetized with Nembutal (the plasma which when incubated at 37°40 C. for 6 hours, yields 30 to […]. of Angiotensin I) was incubated at 37° C. for 2 to 6 hours in the same way as in Method I, and also under the same conditions in the presence of 1.25 mg/ml. of each of the test compounds.
as §1

[3] = test system: renal hypertensive rats; assay: Antihypertensive activity in renal hypertensive rats, i.m. (Table 3); assay type: in vivo, rat; settings: 30 mg/kg/day i.m.
Experimental: An aqueous solution or suspension in peanut oil of each test compound as administered intramuscularly (i.m.) or orally (p.o.) at a dose of 30 to 100 mg/kg (body weight)/day once every morning over the period of 6 to 7 days.
The blood pressure of each rat was measured daily before and 5 hours after each administration. Furthermore, the blood pressure was measured every morning after drug withdrawal over a period of 3 to 6 days.
Test compounds (1)-(4) decreased the blood pressure of renal hypertensive rats with a dose of 30 mg/kg/day i.m.. […] The antihypertensive rats with a dose of 100 mg/kg/day p.o..

[4] = Table 2, 37°C, 4 hours, read-out: Rate of inhibiting the formation of Angiotensin I determined by Method I
[5] = 1st day, 0 h (immediately before administration)
[6] = 1st day, 5 hours after administration
[7] = 2nd day, 0 h (immediately before administration)
[8] = 2nd day, 5 hours after administration
[9] = 3rd day, 0 h (immediately before administration)
[10] = 3rd day, 5 hours after administration
[11] = 4th day, 0 h (immediately before administration)
[12] = 4th day, 5 hours after administration
[13] = 5th day, 0 h (immediately before administration)
[14] = 5th day, 5 hours after administration
[15] = 6th day, 0 h (immediately before administration)
[16] = 6th day, 5 hours after administration
[17] = incubating time 2 hours, read-out: Rate of inhibiting the formation of Angiotensin I
[18] = incubating time 4 hours, read-out: Rate of inhibiting the formation of Angiotensin I
[19] = incubating time 6 hours, read-out: Rate of inhibiting the formation of Angiotensin I

| Compound | inhibition at 1250 µg/mL [1, 4] [%] | inhibition at 1250 µg/mL [2] [%] | Changes of blood pressure after drug withdrawal ([3]; 1st day after withdrawal) [mmHg] | Changes of blood pressure [3, 5] [mmHg] | Changes of blood pressure [3, 6] [mmHg] | Changes of blood pressure after drug withdrawal ([3]; 2nd day after withdrawal) [mmHg] | Changes of blood pressure [3, 7] [mmHg] | Changes of blood pressure [3, 8] [mmHg] | Changes of blood pressure after drug withdrawal ([3]; 3rd day after withdrawal) [mmHg] | Changes of blood pressure [3, 9] [mmHg] | Changes of blood pressure [3, 10] [mmHg] | Changes of blood pressure [3, 11] [mmHg] | Changes of blood pressure [3, 12] [mmHg] | Changes of blood pressure [3, 13] [mmHg] | Changes of blood pressure [3, 14] [mmHg] | Changes of blood pressure [3, 15] [mmHg] | Changes of blood pressure [3, 16] [mmHg] | also measured |
| --- | --- | --- | --- | --- | --- | --- | --- | --- | --- | --- | --- | --- | --- | --- | --- | --- | --- | --- |
| CCCCCC=CCC=CCCCCCCCC(=O)NCCOP(=O)(O)OCCN [(3), 2-(Octadeca-9,12-dienoylamino)ethylphosphoryl ethanolamine] | 25 | 21 | -39 | 0 | -12 | -8 | -1 | -9 | -1 | -8 | -17 | -23 | -38 | -27 | -39 | -35 | -48 | – |
| CCC=CCC=CCC=CCCCCCCCC(=O)NCCCOP(=O)(O)OCCN [Compound (2), 3-(Octadeca-9,12,15-trienoylamino)propylphosphoryl ethanolamine] | 78 | 59 | -34 | 0 | -17 | -21 | -1 | -26 | -7 | -20 | -31 | -22 | -34 | -23 | -39 | -29 | -44 | inhibition at 313 µg/mL [1, 17]: 25%; inhibition at 313 µg/mL [1, 18]: 27%; inhibition at 313 µg/mL [1, 19]: 22%; inhibition at 625 µg/mL [1, 17]: 50%; inhibition at 625 µg/mL [1, 18]: 45%; inhibition at 625 µg/mL [1, 19]: 47%; inhibition at 1250 µg/mL [1, 17]: 75%; inhibition at 1250 µg/mL [1, 18]: 78%; inhibition at 1250 µg/mL [1, 19]: 80%; inhibition at 2500 µg/mL [1, 17]: 93%; inhibition at 2500 µg/mL [1, 18]: 100%; inhibition at 2500 µg/mL [1, 19]: 100% |
| CCC=CCC=CCC=CCCCCCCCC(=O)NCCOP(=O)(O)OCCN [(1), 2-(Octadeca-9,12,15-trienoylamino)ethylphosphoryl ethanolamine] | 61 | 50 | -21 | 0 | -17 | -13 | -6 | -33 | -4 | -8 | -35 | -16 | -37 | -20 | -35 | -24 | -35 | – |
| CCCCCC=CCC=CCCCCCCCC(=O)NCCCOP(=O)(O)OCCN [(4), 3-(Octadeca-9,12-dienoylamino)propylphosphoryl ethanolamine] | 29 | 24 | -29 | 0 | -15 | -12 | -7 | -20 | -2 | -12 | -27 | -22 | -37 | -28 | -41 | -27 | -41 | – |
